One assay has as its target T1, ferroportin (Fpn) (Homo sapiens, UniProt Q9NP59).
T1 construct: expressed in transfected cells; host or cells: HEK-293 cell line #354 (derivative of HEK-293 Tet-ON Advanced)
T1 sequence (Q9NP59 1-571): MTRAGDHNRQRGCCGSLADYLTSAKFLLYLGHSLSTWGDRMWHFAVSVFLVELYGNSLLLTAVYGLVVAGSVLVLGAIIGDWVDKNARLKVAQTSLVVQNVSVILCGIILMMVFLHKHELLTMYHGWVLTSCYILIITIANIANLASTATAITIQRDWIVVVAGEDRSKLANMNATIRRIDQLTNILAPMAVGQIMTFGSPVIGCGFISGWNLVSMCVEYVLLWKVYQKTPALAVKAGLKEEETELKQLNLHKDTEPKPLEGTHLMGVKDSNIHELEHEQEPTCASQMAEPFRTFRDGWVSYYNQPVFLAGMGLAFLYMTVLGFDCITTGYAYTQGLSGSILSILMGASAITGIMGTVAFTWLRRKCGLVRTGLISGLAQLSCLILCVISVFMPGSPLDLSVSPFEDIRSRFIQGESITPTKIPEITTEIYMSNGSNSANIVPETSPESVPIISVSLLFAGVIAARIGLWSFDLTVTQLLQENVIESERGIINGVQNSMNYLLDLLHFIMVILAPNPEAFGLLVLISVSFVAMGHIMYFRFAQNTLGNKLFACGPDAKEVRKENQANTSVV
In words: Inhibition of ferroportin mediated iron export activity in an iron response assay (BLA reporter, HEK-293 cell line #354). It is filed as cell-based. The following applies: for IC50: HEK-293 cell line #354, BLA reporter, tested as 3HCl-salts, n=3, read-out: Iron response (HEK354 Blazer) IC50; for EC50: average of multiple measurements, iron response assay, 3HCl-salts, read-out: BLAzer EC50. The text has this:
Intracellular iron levels are indirectly measured in this assay by monitoring the activity of a beta-lactamase (BLA) reporter gene fused to the human ferritin promoter and the associated iron regulatory element (IRE) contained within the 5′ untranslated region of the ferritin mRNA. Expression of ferroportin (Fpn) in such a cell line leads to iron efflux and lower iron levels as reflected by lower activity of the reporter gene. On the other hand, inhibition of Fpn-mediated iron efflux results in elevated cellular iron levels which is detected as increased reporter gene activity. Small molecular weight Fpn inhibitor compounds were tested for dose-dependent effects in this in vitro iron response assay as described below.
The HEK-293 cell line #354 was generated by stable integration of (i) a human Fpn-GFP fusion construct inserted in a derivative of the doxycycline-inducible pTRE-Tight-BI plasmid (Clontech, Cat. 631068) and (ii) a human ferritin promoter-BLA reporter gene into a derivative of the HEK-293 Tet-ON Advanced cell line (Clontech). To generate the ferritin-BLA reporter gene construct, a 1.4 kb fragment of the human ferritin H promoter was amplified by PCR from human genomic DNA (forward primer 5′-[…]-3′; reverse primer 5′-GGCGGCGACTAAGGAGAGG-3′) and inserted in front of the BLA gene present in the pcDNA™6.2/cGeneBLAzer™-DEST plasmid (Invitrogen, Cat. 12578-043) thereby replacing the original CMV promoter and placing the IRE that regulates translation of the ferritin gene ca. 170 bp upstream of the start codon of the reporter gene. #354 cells were harvested from ca. 80% confluent cultures, seeded at 1.8x10^5 cells/ml in DMEM/F12 GlutaMAX™ medium (Invitrogen, Cat. 31331-028) containing 10% FBS (Clontech, Cat. 631106), 1% Penicillin-Streptomycin, 200 µg/ml Hygromycin B (Invitrogen, Cat. 10687-010), Blasticidin 5 µg/ml, (Invitrogen, Cat. R210-01), 4 µg/ml doxycycline (Clontech, Cat. 631311), 50 µl per well of 384 well PDL-coated plates and grown at 37° C. with 5% CO2. After overnight incubation, 10 µl/well of dilution series of the test compounds were added in quadruplicates and plates were further incubated overnight at 37° C. with 5% CO2. Cells were washed 3 times with HBSS leaving 25 µl per well. BLA activity was detected by adding 5 µl/well of the GeneBlazer reagent CCF4-AM (Invitrogen, Cat. K1085) to the cells. After incubation of the plates in the dark at 18° C. for 60 min., blue and green fluorescence signals were measured in a Safire2 fluorescence plate reader (Tecan) with excitation at 410 nm and emissions at 458 nm (blue) and 522 nm (green). The ratio of blue/green fluorescence as a measure for BLA activity was calculated and EC50 values were determined with the calculated blue/green fluorescence ratios as described for the hepcidin internalization assay.

In assay [1] the target is T2, human Fpn-GFP fusion protein (Homo sapiens, UniProt Q9NP59).
T2 construct: expressed in transfected cells; host or cells: HEK-293 cell line #354 (derivative of HEK-293 Tet-ON Advanced)
T2 sequence (Q9NP59 1-571): T1 sequence (Q9NP59 1-571)
As to the kind of experiment: Ferroportin internalization and degradation assay (FACS, HEK-293 cell line #354). In kind it is cell-based. The procedure:
HEK-293 cell line #354 (described in 11.3) was used to measure the capacity of the compounds to induce internalization and degradation of ferroportin (Fpn) by fluorescence activated cell sorting (FACS). Growing HEK-293 #354 cells in doxycycline containing media induced expression of human Fpn-GFP fusion protein on the cell surface. […] Small molecular weight Fpn inhibitor compounds were tested for dose-dependent effects on the Fpn-GFP mean fluorescence intensity (MFI) on HEK-293 cell line #354, as described below.
HEK#354 cells were harvested from ca. 80% confluent cultures, seeded at 0.6x10^6 cells/ml in DMEM/F12 GlutaMAX™ medium (Invitrogen, Cat. 31331-028) containing 10% FBS (Clontech, Cat. 631106), 1% Penicillin-Streptomycin (Invitrogen, Cat. 15140-122), 200 µg/ml Hygromycin B (Invitrogen, Cat. 10687-010), Blasticidin 5 µg/ml, (Invitrogen, Cat. R210-01), 4 µg/ml doxycycline (Clontech, Cat. 631311), 50 µl per well of 384 well plates (Greiner; Cat. 781091) and grown at 37° C. with 5% CO2. After overnight incubation, 10 µl/well of dilution series of the test compounds were added in quadruplicates and plates were further incubated overnight at 37° C. with 5% CO2. Cells were washed once with FACS buffer (PBS containing 1% FBS, 2 mM EDTA and 0.05% NaN3), harvested in FACS buffer with 0.5 µg/ml propidium iodide (Sigma, Cat. P4864) and analyzed in a flow cytometer (CANTO^tm II, BD Biosciences) equipped with high throughput sampler. Live HEK#354 cells were gated as propidium iodide negative population and analyzed for expression of Fpn-GFP. MFI of Fpn-GFP of > 2000 live cells for each compound dilution was calculated using FlowJo (Tree Star’s, Oregon) and the potency of the Fpn-inhibitors to induce internalization and degradation of Fpn-GFP was calculated as described for the hepcidin internalization assay. EC50 data of the Compounds (II) and (II′) tested in the ferroportin internalization and degradation assay by FACS are listed in Table 4. The average EC50 value of hepcidin in this assay is 0.004 ± 0.002 µM.

The mark [2] stands for this setting: HEK-293 cell line #354, FACS, tested as 3HCl-salts, n=2, read-out: Fpn internalization and degradation (HEK354 FACS) IC50.
[3] abbreviates: average of multiple measurements, HEK-293 #354 FACS, 3HCl-salts, read-out: EC50 (ferroportin internalization and degradation assay).

Where two headings read alike, the source gives them in different places.

Broadly, the IC50 is the midpoint of a concentration-inhibition curve. For orientation: EC50 means the concentration needed to bring the measured effect to its halfway point. With `O=C(NCc1ncccc1F)c1coc(CCNCCc2nc3ccccc3[nH]2)n1` [Compound (II)], on ferroportin (Fpn), the IC50 was determined as 156 nM and the EC50 turned out to be 156 nM. Besides, the DC50 in assay [1] (setting [2]) was 119 nM. The DC50 in assay [1] (setting [3]) was determined as 119 nM.
`CC[C@H](C)[C@@H]1NC(=O)[C@@H](NC(=O)[C@@H](NC(=O)[C@@H]2CCCN2C(=O)[C@H](Cc2ccccc2)NC(=O)[C@H](Cc2c[nH]cn2)NC(=O)[C@@H](NC(=O)[C@@H](N)CC(=O)O)[C@@H](C)O)[C@@H](C)CC)CSSC[C@@H](C(=O)N[C@@H](CCCCN)C(=O)N[C@H](C(=O)O)[C@@H](C)O)NC(=O)[C@@H]2CSSC[C@@H]3NC(=O)[C@@H]4CSSC[C@H](NC(=O)[C@H](Cc5ccccc5)NC1=O)C(=O)N[C@@H](CSSC[C@H](NC(=O)[C@H](CCCCN)NC(=O)[C@H](CO)NC(=O)[C@H](CCCNC(=N)N)NC(=O)[C@H](Cc1c[nH]cn1)NC3=O)C(=O)NCC(=O)N[C@@H](CCSC)C(=O)N2)C(=O)NCC(=O)N4` [hepcidin, reference compound]: at ferroportin (Fpn), the IC50 came to 39 nM. The DC50 in assay [1] (setting [2]) is 6 nM.
`O=C(NCc1ncccc1Br)c1coc(CCNCCc2nc3ccccc3[nH]2)n1` [Compound (II′)]: at ferroportin (Fpn), the IC50 is 168 nM. For the same compound, the EC50 at ferroportin (Fpn) was determined as 168 nM. Also, the DC50 in assay [1] (setting [2]) and in assay [1] (setting [3]) was 161 nM in each case.

For the origin of these results see US20230212159A1, “Process for the Production of Ferroportin Inhibitors” (Vifor (International) AG, priority 2020, published 2023).
